Test results published in US20230174660A1, “USE OF A MULTIMERIC ANTI-DR5 BINDING MOLECULE IN COMBINATION WITH A CANCER THERAPY FOR TREATING CANCER” (IGM Biosciences, Inc., priority 2020, published 2023).
Like-named read-outs stand apart in the source and are kept apart here.

Legend:
OVCAR-4 = test: Cell Titer Glo viability, Mab A + SMAC mimetics (Example 13); format: cell-based; conditions: SMAC mimetic in combination with Mab A
Method: (§1) Synergy was determined as described in earlier examples. The average Bliss synergy scores for combinations of Mab A and SMAC mimetic on the various tumor cell lines are shown in Table 15.

HT 1080 = test: as above; format: cell-based; conditions: SMAC mimetic in combination with Mab A
Method: as §1

SK-MEL-5 = test: as above; format: cell-based; conditions: SMAC mimetic in combination with Mab A
Method: as §1

SW1353 = test: as above; format: cell-based; conditions: SMAC mimetic in combination with Mab A
Method: as §1

HCT 116 = test: as above; format: cell-based; conditions: SMAC mimetic in combination with Mab A
Method: as §1

EBC-1 = test: as above; format: cell-based; conditions: SMAC mimetic in combination with Mab A
Method: as §1

NCIN87 = test: Cell Titer Glo viability, Mab A + chemotherapeutic agent, Bliss synergy (Example 1); format: cell-based; conditions: combination with anti-DR5 IgM Mab A; NCIN87, Gastric Adenocarcinoma, tubular; 72 hours
PANC1 = test: as above; format: cell-based; conditions: combination with anti-DR5 IgM Mab A; PANC1, Pancreas Ductal Adenocarcinoma, exocrine; 72 hours
NUGC4 = test: as above; format: cell-based; conditions: combination with anti-DR5 IgM Mab A; NUGC4, Gastric Adenocarcinoma; 72 hours
NCIH2228 = test: as above; format: cell-based; conditions: combination with anti-DR5 IgM Mab A; NCIH2228, Lung, Non-small cell; 72 hours
BXPC3 = test: as above; format: cell-based; conditions: combination with anti-DR5 IgM Mab A; BXPC3, Pancreas adenocarcinoma; 72 hours
LOUNH91 = test: as above; format: cell-based; conditions: combination with anti-DR5 IgM Mab A; LOUNH91, Lung Squamous cell carcinoma; 72 hours
HCT15 = test: as above; format: cell-based; conditions: combination with anti-DR5 IgM Mab A; HCT15, Colorectal adenocarcinoma; 72 hours
HT1080 = test: as above; format: cell-based; conditions: combination with anti-DR5 IgM Mab A; HT1080, Connective tissue Fibrosarcoma; 72 hours
HT55 = test: as above; format: cell-based; conditions: combination with anti-DR5 IgM Mab A; HT55, Colorectal Carcinoma; 72 hours
NCIH508 = test: as above; format: cell-based; conditions: combination with anti-DR5 IgM Mab A; NCIH508, Colorectal Caecum Adenocarcinoma; 72 hours
[1] = test system: primary human hepatocytes; test: as above; format: cell-based; conditions: combination with anti-DR5 IgM Mab A, Liver, 72 hours
NCIH460 = test: as above; format: cell-based; conditions: combination with anti-DR5 IgM Mab A; NCIH460, Lung, Non-small cell; 72 hours
MV411 = test: as above; format: cell-based; conditions: combination with anti-DR5 IgM Mab A; MV411, Blood (Leukemia) Acute myelogenous leukemia; 72 hours
ASPC1 = test: as above; format: cell-based; conditions: combination with anti-DR5 IgM Mab A; ASPC1, Pancreas Ductal adenocarcinoma; 72 hours
MOLM13 = test: as above; format: cell-based; conditions: combination with anti-DR5 IgM Mab A; MOLM13, Blood (Leukemia) Acute myelogenous leukemia; 72 hours
UMUC3 = test: as above; format: cell-based; conditions: combination with anti-DR5 IgM Mab A; UMUC3, Bladder Transitional Cell Carcinoma; 72 hours
SNU5 = test: as above; format: cell-based; conditions: combination with anti-DR5 IgM Mab A; SNU5, Gastric Adenocarcinoma; 72 hours
OCI-LY7 = test: Cell Titer Glo viability, Mab A + chemotherapeutic/targeted agent (Example 9); conditions: combination with Mab A; OCI-LY7 (NHL); 72 hours
Karpas-422 = test: as above; format: cell-based; conditions: combination with Mab A; Karpas-422 (NHL); 72 hours
WSU-DLCL2 = test: as above; format: cell-based; conditions: 72 hours; for Average Bliss score: combination with Mab A, WSU-DLCL2 (NHL)
DOHH-2 = test: as above; conditions: combination with Mab A; DOHH-2 (NHL); 72 hours
U-937 [2] = test: as above; conditions: 72 hours; for Average Bliss score: combination with Mab A, U-937 (NHL)
Toledo = test: as above; format: cell-based; conditions: combination with Mab A; Toledo (NHL); 72 hours
U-937 [3] = test system: U-937
[4] = test system: primary human hepatocytes; test: Cell Titer Glo viability, Mab A + chemotherapeutic/targeted agent (Example 9); format: cell-based; conditions: 72 hours
Colo205 tumor cells = test: Colo205 subcutaneous tumor model in NCr nude mice (Examples 2-5, 14); format: in vivo; conditions: study termination on day 100; paclitaxel 25 mg/kg i.v. 5 doses, alone or with Mab A 5 mg/kg i.v. 7 doses
MDA-MB-231 tumor cells = test: Cell Titer Glo viability, Mab A + SMAC mimetic (Example 7); conditions: MDA-MB-231 cells; 72 hours
[5] = test system: DR5 agonist-resistant MDA-MB-231 cells; test: Cell Titer Glo viability, Mab A + SMAC mimetic on DR5 agonist-resistant tumor cells (Example 8); format: cell-based

Compound | Average Bliss score (OVCAR-4) | Average Bliss score (HT 1080) | Average Bliss score (SK-MEL-5) | Average Bliss score (SW1353) | Average Bliss score (HCT 116) | Average Bliss score (EBC-1) | Average Bliss score (NCIN87) | Average Bliss score (PANC1) | Average Bliss score (NUGC4) | Average Bliss score (NCIH2228) | Average Bliss score (BXPC3) | Average Bliss score (LOUNH91) | Average Bliss score (HCT15) | Average Bliss score (HT1080) | Average Bliss score (HT55) | Average Bliss score (NCIH508) | Average Bliss score (NCIH460) | Average Bliss score (ASPC1) | Average Bliss score (SNU5) | other results
CN[C@@H](C)C(=O)N[C@H]1CN(C(=O)CC(C)C)CC[C@H]2CC[C@@H](C(=O)NC(c3ccccc3)c3ccccc3)N2C1=O [Debio 1143] | 3 | 12 | 4 | −1 | 19 | 23 |  |  |  |  |  |  |  |  |  |  |  |  |  | 
COc1cccc2c1C(=O)c1c(O)c3c(c(O)c1C2=O)C[C@@](O)(C(=O)CO)C[C@@H]3O[C@H]1C[C@H](N)[C@H](O)[C@H](C)O1 [doxorubicin, Doxorubicin] |  |  |  |  |  |  | 12 | 7.3 | 8.9 | 16 | 1.5 | 12 | 10 | 1.5 | 1.6 | 1.3 | 4 | −0.63 | 12 | Average Bliss score [1]: 0.94; Average Bliss score (MV411): 7.1; Average Bliss score (MOLM13): 5.2; Average Bliss score (UMUC3): 8.8
CC[C@H](Nc1ncnc2nc[nH]c12)c1nc2cccc(F)c2c(=O)n1-c1ccccc1 [idelalisib, Idelalisib] |  |  |  |  |  |  |  |  |  |  |  |  |  |  |  |  |  |  |  | Average Bliss score (OCI-LY7): −1.8; Average Bliss score (Karpas-422): −3.2; Average Bliss score (WSU-DLCL2): −7.4; Average Bliss score (DOHH-2): −0.89; Average Bliss score (U-937 [2]): 2.7; Average Bliss score (Toledo): −1.6
CN[C@@H](C)C(=O)N[C@H]1CN(S(=O)(=O)c2cccc(S(=O)(=O)N3CC[C@H]4CC[C@@H](C(=O)NC(c5ccccc5)c5ccccc5)N4C(=O)[C@@H](NC(=O)[C@H](C)NC)C3)c2)CC[C@H]2CC[C@@H](C(=O)NC(c3ccccc3)c3ccccc3)N2C1=O [APG-1387] | 10 | 38 | 7 | −3 | 34 | 47 |  |  |  |  |  |  |  |  |  |  |  |  |  | 
COc1ccccc1-c1nccc(COc2ccccc2C[C@H](Oc2ncnc3sc(-c4ccc(F)cc4)c(-c4ccc(OCCN5CCN(C)CC5)c(Cl)c4C)c23)C(=O)O)n1 (atropisomer, axis not shown) [MIK665, MIK665/S-64315] |  |  |  |  |  |  |  |  |  |  |  |  |  |  |  |  |  |  |  | single agent cytotoxicity (cell viability curves) (U-937 [3]): complete cytotoxicity; Average Bliss score (OCI-LY7): 3.5; cytotoxicity in primary human hepatocytes [4]: causes cytotoxicity; Average Bliss score (Karpas-422): 3.7; single agent cytotoxicity (cell viability curves) (WSU-DLCL2; WSU-DLCL2 cells): complete cytotoxicity; Average Bliss score (WSU-DLCL2): 16; Average Bliss score (DOHH-2): 3.1; Average Bliss score (U-937 [2]): 4.8; Average Bliss score (Toledo): 6.7
COc1cc([C@@H]2c3cc4c(cc3[C@@H](O[C@@H]3O[C@@H]5CO[C@@H](C)O[C@H]5[C@H](O)[C@H]3O)[C@H]3COC(=O)[C@H]23)OCO4)cc(OC)c1O [etoposide, Etoposide] |  |  |  |  |  |  | 17 | 10 | −2.3 | 14 | 2.2 | 16 | 15 | 3.6 | 5.1 | −0.99 | 3.6 | 5.2 | 3.6 | 
CC(=O)O[C@H]1C(=O)[C@@]2(C)[C@H]([C@H](OC(=O)c3ccccc3)[C@]3(O)C[C@H](OC(=O)[C@H](O)[C@@H](NC(=O)c4ccccc4)c4ccccc4)C(C)=C1C3(C)C)[C@]1(OC(C)=O)CO[C@@H]1C[C@@H]2O [paclitaxel, Paclitaxel] |  |  |  |  |  |  | 13 | 15 | 7 | 15 | 3.8 | 9.7 | 7.6 | 2.7 | 6.2 | 8.4 | 4.7 | 14 | 2.8 | animals with no visible tumors (tumor-free) (Colo205 tumor cells): 2 out of 10; Average Bliss score [1]: 5.3; Average Bliss score (UMUC3): 6.3
C[C@@H]1CN(CC(=O)N2CC(C)(C)c3nc(CO)c(Cc4ccc(F)cc4)cc32)[C@@H](CN2CCOC[C@H]2C)CN1 [ASTX660] | 9 | 20 | 11 | −2 | 29 | 17 |  |  |  |  |  |  |  |  |  |  |  |  |  | 
CN[C@@H](C)C(=O)N[C@H](C(=O)N1CCC[C@H]1C(=O)Nc1snnc1-c1ccccc1)C1CCCCC1 [GDC-0152, GDC-0152/RG-7419] |  |  |  |  |  |  |  |  |  |  |  |  |  |  |  |  |  |  |  | single agent cytotoxicity (cell viability curves) (MDA-MB-231 tumor cells): little to no cytotoxicity; single agent cytotoxicity (cell viability curves) [5]: little to no cytotoxicity
CC[C@]1(O)C[C@H]2CN(CCc3c([nH]c4ccccc34)[C@@](C(=O)OC)(c3cc4c(cc3OC)N(C=O)[C@H]3[C@@](O)(C(=O)OC)[C@H](OC(C)=O)[C@]5(CC)C=CCN6CC[C@]43[C@@H]65)C2)C1 [vincristine, Vincristine] |  |  |  |  |  |  |  |  |  |  |  |  |  |  |  |  |  |  |  | single agent cytotoxicity (cell viability curves) (U-937 [2]; U-937 cells): strong cytotoxicity
